# Test results reported in ChEMBL document CHEMBL1139107, “Design, synthesis, and biological evaluation of novel analogues of archazolid: a highly potent simplified V-ATPase inhibitor” (Bioorg Med Chem Lett, 2007).
# Molecular target: not listed separately
# Assay: Inhibition of tobacco hornworm midgut vacuolar ATPase V1/V0 holoenzyme
# Design: species or system Manduca sexta
row,SMILES,IC50
1,CNC(=O)O[C@@H](CC(C)C)c1nc([C@H]2OC(=O)/C(C)=C/C/C(C)=C/[C@@H](O)[C@@H](C)\C=C(C)/C=C(C)\C=C\[C@@H](O)[C@H](C)[C@H](OC)/C(C)=C/C=C/[C@@H]2C)cs1 [ARCHAZOLID A],0.6 nmol

# Tested on: L929
# Assay: Growth inhibition of mouse L929 cells by MTT assay
# Format: functional, cell-based
row,SMILES,IC50
1,CNC(=O)O[C@@H](CC(C)C)c1nc([C@H]2OC(=O)/C(C)=C/C/C(C)=C/[C@@H](O)[C@@H](C)\C=C(C)/C=C(C)\C=C\[C@@H](O)[C@H](C)[C@H](OC)/C(C)=C/C=C/[C@@H]2C)cs1 [ARCHAZOLID A],0.81 nM
2,CNC(=O)O[C@@H](CC(C)C)c1nc([C@H]2OC(=O)/C=C/C/C(C)=C/[C@@H](O)[C@@H](C)\C=C(C)/C=C(C)\C=C\[C@@H](O)[C@H](C)[C@H](OC)/C(C)=C/C=C/[C@@H]2C)cs1 [ARCHAZOLID B],1.1 nM
3,CNC(=O)O[C@@H](CC(C)C)c1nc([C@H]2OC(=O)/C(C)=C/C/C(C)=C/[C@@H](O)[C@@H](C)\C=C(C)/C=C(C)\C=C\C(=O)[C@H](C)[C@H](OC)/C(C)=C/C=C/[C@@H]2C)cs1 [DEHYDROARCHAZOLID],> 5000 nM
4,CO[C@@H]1/C(C)=C/C=C/[C@H](C)[C@@H](c2csc([C@@H](O)CC(C)C)n2)OC(=O)/C(C)=C/C/C(C)=C/[C@@H](O)[C@@H](C)\C=C(C)/C=C(C)\C=C\[C@@H](O)[C@@H]1C,14 nM
5,CNC(=O)O[C@@H](CC(C)C)c1nc([C@H]2OC(=O)/C(C)=C/C/C(C)=C/[C@@H](OC(=O)c3ccc([N+](=O)[O-])cc3)[C@@H](C)\C=C(C)/C=C(C)\C=C\[C@@H](O)[C@H](C)[C@H](OC)/C(C)=C/C=C/[C@@H]2C)cs1,290 nM
6,CNC(=O)O[C@@H](CC(C)C)c1nc([C@H]2OC(=O)/C(C)=C/C/C(C)=C/[C@@H](O[Si](C)(C)C(C)(C)C)[C@@H](C)\C=C(C)/C=C(C)\C=C\[C@@H](O)[C@H](C)[C@H](OC)/C(C)=C/C=C/[C@@H]2C)cs1,940 nM
